We go through six molecules from PubChem BioAssay (NCI).

Test systems include HCT-116 colon; SNB-75 CNS; MDA-MB-231 breast; NCI-H522 lung; HOP-92 NSCLC; HL-60(TB) leukemia; HCT-15 colon; OVCAR-3 ovarian; OVCAR-4 ovarian; SK-MEL-5 melanoma.
Assay in all cases: NCI tumour cell line growth inhibition, 48 h

Several values for one entry are separate records, joined by “and”; a condition that tells them apart may be missing. Equal entries are not always repeated.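 Where inhibition never reached the appropriate level, the endpoint shown equals the highest concentration tested. Otherwise, values were interpolated linearly from a five-concentration, 48-hour dose response in 96-well plates. GI50 is the concentration that inhibits growth by half. At the TGI there is no net growth.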

Take `COc1ccc(-c2c3c(n(C4OC(COC(C)=O)C(OC(C)=O)C(OC(C)=O)C4OC(C)=O)c(=S)c2C#N)CC(C)(C)CC3=O)cc1` (stereo not drawn): the GI50 in the experiment with HCT-116 colon is 41.8 µM and > 100 µM; in the experiment on SNB-75 CNS, 25 µM and 67.8 µM; in the experiment on HOP-92 NSCLC, 32.7 µM and > 100 µM; in the experiment on HL-60(TB) leukemia it was 18.4 µM and 47.6 µM; in the experiment on HCT-15 colon, 40.7 µM and > 100 µM; in the experiment with OVCAR-3 ovarian, 40.5 µM and 88.7 µM. The GI50 with OVCAR-4 ovarian is 45.4 µM and > 100 µM; in the experiment on SK-MEL-5 melanoma, 23.1 µM and 61.1 µM. Further, the TGI in the experiment with HCT-116 colon was over 100 µM; with SNB-75 CNS, 97.9 µM and > 100 µM; in the experiment on MDA-MB-231 breast, over 100 µM; with NCI-H522 lung, over 100 µM; in the experiment on HOP-92 NSCLC, over 100 µM; in the experiment with HL-60(TB) leukemia, 42.5 µM and > 100 µM. Besides, the TGI in the experiment on HCT-15 colon was over 100 µM; with OVCAR-3 ovarian it was over 100 µM; in the experiment with OVCAR-4 ovarian it was over 100 µM; in the experiment on SK-MEL-5 melanoma, 75.7 µM and > 100 µM.

As for `CN(Cc1cc(Cl)cc(Cl)c1)CC(C(=O)c1ccccc1)c1ccccc1` (stereo not drawn), the TGI is 2.36 µM with HCT-116 colon; 31.3 µM in the experiment on SNB-75 CNS; 23.5 µM in the experiment with MDA-MB-231 breast; 4.39 µM with NCI-H522 lung; over 91.3 µM in the experiment with HOP-92 NSCLC; 47.4 µM in the experiment with HL-60(TB) leukemia. Also, the TGI came to 1.84 µM in the experiment with HCT-15 colon, 3.65 µM in the experiment with OVCAR-3 ovarian, 12.4 µM in the experiment on OVCAR-4 ovarian and 29.9 µM with SK-MEL-5 melanoma.

In the case of `COc1nc(N)nc2c1ncn2C1OC(CO)C(O)C1O` (stereo not drawn), the GI50 was over 5000 µM with HCT-116 colon; over 5000 µM in the experiment with SNB-75 CNS; over 5000 µM with MDA-MB-231 breast; over 5000 µM in the experiment on NCI-H522 lung; 2640 µM in the experiment with HOP-92 NSCLC; 1190 µM in the experiment with HL-60(TB) leukemia. Besides, the GI50 in the experiment with HCT-15 colon was over 5000 µM; with OVCAR-3 ovarian, over 5000 µM; with OVCAR-4 ovarian, over 5000 µM; in the experiment with SK-MEL-5 melanoma, 164 µM. Also, the TGI in the experiment with HCT-116 colon, in the experiment on SNB-75 CNS, in the experiment with MDA-MB-231 breast, in the experiment with NCI-H522 lung, in the experiment on HOP-92 NSCLC and in the experiment on HL-60(TB) leukemia was over 5000 µM in each case. The TGI in the experiment on HCT-15 colon, in the experiment with OVCAR-3 ovarian, in the experiment on OVCAR-4 ovarian and with SK-MEL-5 melanoma was over 5000 µM in each case.

`Cc1nc(N2CCC3(CC2)CO[C@@H](C)[C@H]3N)c(CO)nc1Sc1ccnc(N)c1Cl`: the GI50 was 59.7 µM with HCT-116 colon; 0.518 µM with SNB-75 CNS; over 100 µM in the experiment on MDA-MB-231 breast; 1.32 µM with NCI-H522 lung; 0.184 µM in the experiment on HOP-92 NSCLC; over 100 µM in the experiment with HL-60(TB) leukemia. The GI50 in the experiment on HCT-15 colon was over 100 µM; in the experiment with OVCAR-3 ovarian it was over 85.3 µM; with OVCAR-4 ovarian, 22.4 µM; in the experiment on SK-MEL-5 melanoma, 14.1 µM. Further, the TGI is over 100 µM in the experiment with HCT-116 colon; over 100 µM in the experiment with SNB-75 CNS; over 100 µM in the experiment with MDA-MB-231 breast; over 100 µM in the experiment on NCI-H522 lung; 2.12 µM in the experiment on HOP-92 NSCLC; over 100 µM with HL-60(TB) leukemia. In addition, the TGI was over 100 µM in the experiment on HCT-15 colon, over 100 µM with OVCAR-3 ovarian, over 100 µM in the experiment on OVCAR-4 ovarian and 35 µM in the experiment with SK-MEL-5 melanoma.

In the case of `O=C(/C=C/c1ccccc1)n1c(-c2ccc(Cl)cc2)nc2ccccc21`, the GI50 in the experiment on HCT-116 colon is 1.21 µM; in the experiment on SNB-75 CNS it was 1.44 µM; in the experiment on MDA-MB-231 breast, 1.88 µM; in the experiment with NCI-H522 lung, 1.23 µM; with HOP-92 NSCLC it was 1.46 µM; in the experiment with HL-60(TB) leukemia, 1.4 µM. Also, the GI50 in the experiment with HCT-15 colon is 1.34 µM; with OVCAR-3 ovarian, 1.11 µM; in the experiment with OVCAR-4 ovarian, 3.01 µM; in the experiment on SK-MEL-5 melanoma it was 1.64 µM. The TGI in the experiment on HCT-116 colon is 2.88 µM; in the experiment with SNB-75 CNS it was 3.77 µM; in the experiment with MDA-MB-231 breast, 5.18 µM; in the experiment on NCI-H522 lung, 2.64 µM; in the experiment with HOP-92 NSCLC, 3.82 µM; in the experiment with HL-60(TB) leukemia it was 4.88 µM. In addition, the TGI in the experiment with HCT-15 colon worked out at 7.06 µM; in the experiment on OVCAR-3 ovarian, 2.64 µM; with OVCAR-4 ovarian, 16.7 µM; in the experiment on SK-MEL-5 melanoma, 3.12 µM.

Take `COc1ccc2c(c1)CC[C@H](O)/C2=C/c1cc(OC)c(OC)c(OC)c1`: the GI50 in the experiment with HCT-116 colon was 0.104 µM; in the experiment with SNB-75 CNS it was 0.0638 µM; with MDA-MB-231 breast, 0.604 µM; with NCI-H522 lung, 0.0824 µM; with HOP-92 NSCLC, 16.3 µM; with HL-60(TB) leukemia, 0.192 µM. Further, the GI50 in the experiment on HCT-15 colon is 0.0567 µM; in the experiment on OVCAR-3 ovarian, 0.0757 µM; in the experiment with OVCAR-4 ovarian it was 0.952 µM; in the experiment with SK-MEL-5 melanoma it was 0.0608 µM. Further, the TGI with HCT-116 colon was over 100 µM; in the experiment on SNB-75 CNS, over 100 µM; with MDA-MB-231 breast, over 100 µM; in the experiment on NCI-H522 lung, 6.16 µM; with HOP-92 NSCLC, over 100 µM; in the experiment with HL-60(TB) leukemia, 0.86 µM. For the same molecule, the TGI in the experiment with HCT-15 colon is over 100 µM; in the experiment on OVCAR-3 ovarian, over 100 µM; with OVCAR-4 ovarian, over 100 µM; in the experiment with SK-MEL-5 melanoma it was 2.89 µM.
